Like-named read-outs stand apart in the source and are kept apart here.
What was measured:
[1] = test system: SARS-CoV-2 WA1 (USA-WA1/2020); assay: Antiviral immunofluorescence assay, SARS-CoV-2 WA1 in Calu-3 cells; type: cell-based; settings: for EC50 / EC90: immunofluorescence, 44 hpi, mean ± SD; for EC50: read-out: EC50
SARS-CoV-2 (WA-1) [2] = assay: Antiviral immunofluorescence assay, SARS-CoV-2 WA1 in Huh7.5 cells; type: cell-based
SARS-CoV-2 (WA-1) [3] = assay: Antiviral immunofluorescence assay, SARS-CoV-2 WA1 in Vero-TMPRSS2 cells; type: cell-based
in vitro [4] = settings: human
in vitro [5] = settings: human; remark: listed apart in the source
in vitro [6] = assay: in vitro
Protocol: (§1) Cells were seeded as per SARS-CoV-2 infection studies in opaque walled 96-well cell culture plates and incubated overnight for Huh7.5 and Vero-TMPRSS2 cells and for an additional 24h for Calu-3 cells. Compounds or controls were added at the indicated concentrations. Cells were incubated for 48h for Huh7.5 cells, 40–44h for Calu-3 cells, or 30–32h for Vero-TMPRSS2 cells at 37 °C and 5% CO2, an equal volume of CellTiter-Glo reagent (Cat. #G7570, Promega) or CellTiter-Glo 2.0 reagent (Cat. #G9241, Promega) was added and mixed, and luminescence was recorded on a Veritas Microplate Luminometer (Turner BioSystems) according to manufacturer recommendations. Percent viability was calculated compared to DMSO controls, and CC50 values were calculated using Prism 9.
(§2) Calu-3 cells were treated for 44h (A), Huh7.5 cells were treated for 48h (B), and Vero-
(§3) TMPRSS2 cells were treated for 38h (C) as in infection assays for each cell type. Cell viability
(§4) was measured by CellTiter-Glo assay and reported as % cell viability relative to DMSO controls.
(§5) Best fit curves calculated in Graphpad Prism 9 were used
(§6) to compute cytotoxic concentration 50% (CC50) values in Tables 1-3.

SARS-CoV-2 (WA-1) [7] = assay: Antiviral immunofluorescence assay, SARS-CoV-2 WA1 in human pluripotent stem cell-derived lung cells; type: cell-based; settings: 24 hpi
in vitro [8] = settings: human; remark: listed apart in the source
Calu-3 cells = assay: Cell viability assay (CellTiter-Glo), Calu-3 cells; settings: uninfected Calu-3 cells, 44h
Huh7.5 cells = assay: Cell viability assay (CellTiter-Glo), Huh7.5 cells; settings: uninfected Huh7.5 cells, 48h
Vero-TMPRSS2 cells = assay: Cell viability assay (CellTiter-Glo), Vero-TMPRSS2 cells; settings: uninfected Vero-TMPRSS2 cells, 38h
Protocol: as §1, §2, §3, §4, §5, §6

[9] = test system: human pluripotent stem cell-derived lung cells; assay: Cytotoxicity by relative number of nuclei, human pluripotent stem cell-derived lung cells; settings: PSC-lung cells, relative number of nuclei (IF) vs vehicle-treated wells
[10] = Severe acute respiratory syndrome coronavirus 2, Calu-3, WA1, Calu-3 cells
[11] = Severe acute respiratory syndrome coronavirus 2, WA1, Calu-3 cells
[12] = Severe acute respiratory syndrome coronavirus 2, WA-1, Huh7.5 cells, immunofluorescence, 48 hpi, read-out: EC50
[13] = Severe acute respiratory syndrome coronavirus 2, WA-1, Huh7.5 cells, immunofluorescence, 48 hpi, read-out: EC90
[14] = Severe acute respiratory syndrome coronavirus 2, Vero/TMPRSS2
[15] = Severe acute respiratory syndrome coronavirus 2, WA-1, Vero-TMPRSS2 cells, immunofluorescence, 38 hpi
[16] = Severe acute respiratory syndrome coronavirus 2, WA-1, PSC-lung cells (ALDA 31616 and H9)
[17] = Severe acute respiratory syndrome coronavirus 2, Huh7.5
[18] = WA-1, PSC-lung cells (ALDA 31616 and H9)

| Compound | EC50 [1, 10] | EC90 [1, 11] | EC50 (SARS-CoV-2 (WA-1) [2]; [12]) | EC90 (SARS-CoV-2 (WA-1) [2]; [13]) | EC50 (SARS-CoV-2 (WA-1) [3]; [14]) | EC90 (SARS-CoV-2 (WA-1) [3]; [15]) | CC50 at 44 h (in vitro [4]) | CC50 at 48 h (in vitro [5]) | CC50 (in vitro [6]; chlorocebus aethiops) | further results |
| --- | --- | --- | --- | --- | --- | --- | --- | --- | --- | --- |
| CCCCCCCCCCCCCCCCCCOCC(COP(=O)(O)OC[C@H]1O[C@@](C#N)(c2ccc3c(N)ncnn23)[C@H](O)[C@@H]1O)OCc1ccccc1 (stereo partly drawn) [Compound 9c, ((2R,3S,4R,5R)-5-(4-aminopyrrolo[2,1-f][1,2,4]triazin-7-yl)-5-cyano-3,4-dihydroxytetrahydrofuran-2-yl)methyl ((R,S)-2-(benzyloxy)-3-(octadecyloxy)propyl) hydrogen phosphate] | 172 ± 78 nM | 1070 ± 1040 nM | 175 ± 120 nM | 519 ± 256 nM | 238 ± 74 nM | 613 ± 84 nM | 92.1 µM | 64.6 µM | > 100 µM |  |
| CCCCCCCCCCCCCCCCCCOC[C@H](COP(=O)(O)OC[C@H]1O[C@@](C#N)(c2ccc3c(N)ncnn23)[C@H](O)[C@@H]1O)OCc1cccc(F)c1 [Compound 9d, ((2R,3S,4R,5R)-5-(4-Aminopyrrolo[2,1-f][1,2,4]triazin-7-yl)-5-cyano-3,4-dihydroxytetrahydrofuran-2-yl)methyl ((R)-2-((3-fluorobenzyl)oxy)-3-(octadecyloxy)propyl) hydrogen phosphate] | 224 ± 129 nM | 506 ± 204 nM | 191 ± 77 nM | 488 ± 199 nM | 271 ± 22 nM | 629 ± 61 nM | 94.7 µM | 75 µM | > 100 µM |  |
| CCCCCCCCCCCCCCCCCCOC[C@H](COP(=O)(O)OC[C@H]1O[C@@](C#N)(c2ccc3c(N)ncnn23)[C@H](O)[C@@H]1O)OCc1ccc(OC)c(F)c1 [Compound 9g, ((2R,3S,4R,5R)-5-(4-Aminopyrrolo[2,1-f][1,2,4]triazin-7-yl)-5-cyano-3,4-dihydroxytetrahydrofuran-2-yl)methyl ((R)-2-((3-fluoro-4-methoxybenzyl)oxy)-3-(octadecyloxy)propyl) hydrogen phosphate] | 77 ± 27 nM | 145 ± 54 nM | 60 ± 37 nM | 212 ± 86 nM | 178 ± 57 nM | 294 ± 62 nM | 50.5 µM | 70.1 µM | > 100 µM | EC50 (SARS-CoV-2 (WA-1) [7]; [16]): 167 ± 55 nM; EC90 (SARS-CoV-2 (WA-1) [7]; [16]): 348 ± 121 nM; CC50 at 24 h (in vitro [8]): > 20 µM |
| CCCCCCCCCCCCCCCCCCOC[C@H](COP(=O)(O)OC[C@H]1O[C@@](C#N)(c2ccc3c(N)ncnn23)[C@H](O)[C@@H]1O)OCCCCCCCC [Compound 9h, ((2R,3S,4R,5R)-5-(4-Aminopyrrolo[2,1-f][1,2,4]triazin-7-yl)-5-cyano-3,4-dihydroxytetrahydrofuran-2-yl)methyl ((R)-3-(octadecyloxy)-2-(octyloxy)propyl) hydrogen phosphate] | 391 ± 39 nM | 2500 ± 1240 nM | 564 ± 252 nM | 3360 ± 2860 nM | 775 ± 245 nM | 1790 ± 140 nM | > 100 µM | > 100 µM | > 100 µM |  |
| CCCCCCCCCCCCCCCCCCOC[C@H](COP(=O)(O)OC[C@H]1O[C@@](C#N)(c2ccc3c(N)ncnn23)[C@H](O)[C@@H]1O)OCCC1CCCCC1 [Compound 9i, ((2R,3S,4R,5R)-5-(4-Aminopyrrolo[2,1-f][1,2,4]triazin-7-yl)-5-cyano-3,4-dihydroxytetrahydrofuran-2-yl)methyl ((R)-2-(2-cyclohexylethoxy)-3-(octadecyloxy)propyl) hydrogen phosphate] | 144 ± 20 nM | 1830 ± 1040 nM | 92 ± 26 nM | 1310 ± 310 nM | 296 ± 10 nM | 582 ± 14 nM | 98.7 µM | 69.8 µM |  | CC50 (in vitro [6]; African green monkey): > 100 µM |
| CCCCCCCCCCCCCCCCCCOC[C@H](COP(=O)(O)OC[C@H]1O[C@@](C#N)(c2ccc3c(N)ncnn23)[C@H](O)[C@@H]1O)OCc1ccccc1C#N [Compound 9l, ((2R,3S,4R,5R)-5-(4-Aminopyrrolo[2,1-f][1,2,4]triazin-7-yl)-5-cyano-3,4-dihydroxytetrahydrofuran-2-yl)methyl ((R)-2-((2-cyanobenzyl)oxy)-3-(octadecyloxy)propyl) hydrogen phosphate] | 91 ± 25 nM | 186 ± 47 nM | 102 ± 17 nM | 281 ± 30 nM |  |  | 82.8 µM | > 100 µM |  |  |
| CCCCCCCCCCCCCCCCOC[C@H](COP(=O)(O)OC[C@H]1O[C@@](C#N)(c2ccc3c(N)ncnn23)[C@H](O)[C@@H]1O)OCc1ccccc1 [Compound 11a, ((2R,3S,4R,5R)-5-(4-Aminopyrrolo[2,1-f][1,2,4]triazin-7-yl)-5-cyano-3,4-dihydroxytetrahydrofuran-2-yl)methyl ((R)-2-(benzyloxy)-3-(hexadecyloxy)propyl) hydrogen phosphate] | 95 ± 12 nM | 716 ± 270 nM | 131 ± 66 nM | 268 ± 221 nM | 402 ± 84 nM | 798 ± 154 nM | 88.7 µM | > 100 µM | > 100 µM |  |
| CCCCCCCCCCCCCCCCOC[C@H](COP(=O)(O)OC[C@H]1O[C@@](C#N)(c2ccc3c(N)ncnn23)[C@H](O)[C@@H]1O)OCc1ccc(OC)c(F)c1 [Compound 11g, ((2R,3S,4R,5R)-5-(4-Aminopyrrolo[2,1-f][1,2,4]triazin-7-yl)-5-cyano-3,4-dihydroxytetrahydrofuran-2-yl)methyl ((R)-2-((3-fluoro-4-methoxybenzyl)oxy)-3-(hexadecyloxy)propyl) hydrogen phosphate] | 51 ± 18 nM | 240 ± 131 nM | 50 ± 22 nM | 103 ± 47 nM | 406 ± 87 nM | 858 ± 249 nM | 75.7 µM | 59 µM | > 100 µM | EC50 (SARS-CoV-2 (WA-1) [7]; [16]): 130 ± 56 nM; EC90 (SARS-CoV-2 (WA-1) [7]; [16]): 267 ± 19 nM; CC50 at 24 h (in vitro [8]): > 20 µM |
| CCCCCCCCCCCCCCOC[C@H](COP(=O)(O)OC[C@H]1O[C@@](C#N)(c2ccc3c(N)ncnn23)[C@H](O)[C@@H]1O)OCc1ccccc1 [Compound 12a, ((2R,3S,4R,5R)-5-(4-Aminopyrrolo[2,1-f][1,2,4]triazin-7-yl)-5-cyano-3,4-dihydroxytetrahydrofuran-2-yl)methyl ((R)-2-(benzyloxy)-3-(tetradecyloxy)propyl) hydrogen phosphate] | 213 ± 97 nM | 575 ± 251 nM |  |  | 909 ± 27 nM | 1630 ± 120 nM | > 100 µM | > 100 µM | > 100 µM | EC50 (SARS-CoV-2 (WA-1) [2]; [17]): 157 ± 400 nM; EC90 (SARS-CoV-2 (WA-1) [2]; [17]): 479 ± 19 nM |
| ((2R,3S,4R,5R)-5-(4-Aminopyrrolo[2,1-f][1,2,4]triazin-7-yl)-5-cyano-3,4-dihydroxytetrahydrofuran-2-yl)methyl ((R)-2-((3-fluoro-4-methoxybenzyl)oxy)-7-(tetradec-5-en-1-yloxy)heptyl) hydrogen phosphate [Compound 10g] |  |  |  |  |  |  |  |  |  | fold better potency ([1]; 3-fluoro-4-methoxybenzyl at sn-2 versus unsubstituted benzyl): 2–3 fold; fold more active than RDV ([1]; Calu-3 cells, based on EC50): 3.3 fold; EC90 ([1]; WA1, Calu-3 cells): 149 ± 117 nM; EC50 ([1]; WA1, Calu-3 cells): 70 ± 3 nM; EC50 (SARS-CoV-2 (WA-1) [2]; WA-1, Huh7.5 cells, immunofluorescence, 48 hpi, read-out: EC50): 54 ± 16 nM; EC90 (SARS-CoV-2 (WA-1) [2]; WA-1, Huh7.5 cells, immunofluorescence, 48 hpi, read-out: EC90): 95 ± 27 nM; EC90 (SARS-CoV-2 (WA-1) [3]; WA-1, Vero-TMPRSS2 cells, immunofluorescence, 38 hpi): 554 ± 54 nM; EC50 (SARS-CoV-2 (WA-1) [3]; WA-1, Vero-TMPRSS2 cells, immunofluorescence, 38 hpi, read-out: EC50): 300 ± 38 nM; EC50 (SARS-CoV-2 (WA-1) [7]; [18]): 82 ± 13 nM; EC90 (SARS-CoV-2 (WA-1) [7]; [18]): 175 ± 16 nM; CC50 (Calu-3 cells): 58.7 µM; CC50 (Huh7.5 cells): > 100 µM; CC50 (Vero-TMPRSS2 cells): > 100 µM; CC50 [9]: > 20 µM |

— paper PMC10108740 (Journal of Medicinal Chemistry, 2023)
